What was measured:
dogs = assay: 28 days toxicity study in dogs (GLP), oral TTA; assay type: in vivo, dog
Description: A 28 days toxicity study in dogs according to GLP guide-lines has been performed by Corning Hazleton (Europe), England. […] Some lipid related parameters were lowered in the animals given high dosages. This is consistent with the pharmacological activity of TTA.

Escherichia coli = assay: Test for mutagenic activity in Escherichia coli strains; assay type: cell-based; details: 3-1000 mg/plate (TTA) 2-5000 mg/plate (TSA)
Description: (§1) Tests for mutagenic activity have been performed by Covance Laboratories Limited, England. […] Furthermore, TTA was not mutagenic when tested in mouse lymphoma cells […] L5178Y.

[1] = system: mouse lymphoma cells, L5178Y; assay: Mutagenicity test in mouse lymphoma cells L5178Y; assay type: cell-based; details: 2.5-50 mg/ml
Description: as §1

Wistar rats = assay: Lipid lowering effect in normal Wistar rats (Example 4); assay type: in vivo, rat; details: gavage once daily for 7 days, dose 150 mg/day/kg body weight
Protocol: Male Wistar rats, weighing 180-200 g at the start of the experiment, were housed individually in metal wire cages in a room maintained at 12 h light-dark cycles and a constant temperature of 20±3° C. The animals were acclimatised for one week under these conditions before the start of the experiments.
TTA, TSA and eicosapentaenoic acid (EPA) were suspended in 0.5% (w/v) carboxymethyl cellulose (CMC). Six animals were used for each treatment, and a 0.5% CMC solution was administrated to the rats as control. After administration of the test compound, the rats were fasted for 12 hours and anaesthetised with haloethan. The EPA and the fatty acid derivatives were administered by gastric intubation (gavage) once daily for 7 days. Blood samples were collected by cardiac puncture, and lipid concentrations in plasma were determined as outlined in the method section.

[2] = system: high fat diet fed Wistar Charles River rats; assay: High fat diet with or without TTA for three weeks, adipose tissue weights (Example 5); assay type: in vivo, rat; details: high fat diet + 0.4% TTA for three weeks, mean ± SEM
Protocol: Male Wistar Charles River rats weighing 280-358 grams were purchased from AnLab Ltd. (Prague, Czech Republic) and housed in wire-mesh cages in a temperature (22±1° C.) and light-controlled (light from 7:00 a.m. to 7:00 p.m.) room. They were given free access to chow and water. Three rats were housed per cage. Weight gain and food intake were recorded daily.
High Fat (HF): 1.9% gelatin, 5.7% wheat bran, 7.7% vitamins and minerals, 25.4% corn starch, 25.7% casein, 26.8% beef tallow and 7.1% sunflower oil.
HF+TTA: Same+0.4% TTA dissolved in the beef tallow.
Male Wistar Charles River rats (280-360 g) were fed 3 different diets (see methods) for 3 weeks ad libitum. Afterwards, they were killed by decapitation, liver and epididymal adipose tissue pads were dissected out and weighed.
Feeding the Wistar rats the high fat diet thus increased the epididymal and retroperitoneal fad pad weight.

male dogs = assay: Body weights of male dogs treated for 4 weeks (Example 10); assay type: in vivo, dog; details: 500 mg/kg/day orally in capsules
Protocol: 3 male dogs (4-6 months old) were housed singly during the days. Each animal was offered 400 g of SQC Diet A each morning after dosing and any residue diet was removed in the afternoon. The drug was administered orally in capsules once daily for 28 days.

[3] = system: 5 weeks old Zucker (fa/fa) rats; assay: Blood insulin and glucose in 5 weeks old Zucker (fa/fa) rats (Example 13); assay type: in vivo, rat; details: 300 mg/kg/day oral gavage, 11 days (FIG. 5)
Protocol: (§2) Glucose (GLU, Boehringer Mannheim, Germany), free fatty acids (NEFA, C ACS-ACOD kit; Wako Chemicals, Dalton, USA) and b-hydroxybutyrate (310-A kit; Sigma Diagnostics Inc., St. Louis, USA) concentrations were measured using enzymatic methods. Insulin concentrations were determined with radioimmunoassay by (CIS bio International, Gif sur Yvette, France) using rat insulin as standard in the Zucker rats. In the Wistar Charles River rats, plasma glucose concentrations were measured with the aid of Beckman Glucose Analyzer (Fullerton, Calif., USA). Plasma insulin levels were measured using a RIA kit from Linco Research Inc. (St. Charles, Mo., USA). Phospholipids were measured by the enzymatic method of bioMérieux, Marcy-l {grave over ( )}Etoile, France, Triacylglycerol by the Technicon Method no. SA4-0324L90, USA and Cholesterol by the Technicon Method no. SA4-0305L90, USA.
The rats were administered TTA at a dose of 300 mg/kg/day suspended in 0.5% CMC (n=6) by oral gavage. Following 11 days of treatment, rats were killed by cervical dislocation. Blood was collected and the levels of insulin and glucose measured as indicated in the method section. Data are means±S.D.

[4] = system: 4 month old obese Zucker (fa/fa) rats; assay: Blood insulin and glucose in 4 month old obese Zucker (fa/fa) rats (Example 13); assay type: in vivo, rat; details: 4 month old Zucker (fa/fa) rats, chow with 0.15% TTA, 21 days (FIG. 6)
Protocol: as §2
The rats were given a standard chow diet, either with (n=5) or without (n=6) 0.15% TTA. Following 21 days of treatment, blood was collected and the levels of insulin and glucose measured. Data are means±S.D.

PPARα = biological target: T1, PPARα (Homo sapiens, UniProt Q07869); assay: Ligand of PPARα; assay type: binding
T1 sequence (Q07869 1-468): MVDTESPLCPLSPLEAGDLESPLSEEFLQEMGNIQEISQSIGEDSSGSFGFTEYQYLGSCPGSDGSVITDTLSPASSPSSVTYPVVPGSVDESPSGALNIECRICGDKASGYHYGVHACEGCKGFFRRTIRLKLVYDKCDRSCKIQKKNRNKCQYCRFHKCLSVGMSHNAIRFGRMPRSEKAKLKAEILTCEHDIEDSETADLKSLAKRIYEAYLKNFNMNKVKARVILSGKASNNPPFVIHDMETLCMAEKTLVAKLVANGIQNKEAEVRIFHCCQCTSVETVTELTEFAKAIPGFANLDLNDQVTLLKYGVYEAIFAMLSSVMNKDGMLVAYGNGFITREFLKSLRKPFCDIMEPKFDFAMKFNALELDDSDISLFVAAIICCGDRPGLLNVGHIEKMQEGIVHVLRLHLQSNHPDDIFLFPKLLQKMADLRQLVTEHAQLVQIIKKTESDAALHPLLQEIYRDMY

PPARγ = biological target: T2, PPARγ (Homo sapiens, UniProt P37231); assay: Ligand of PPARγ; assay type: binding
T2 sequence (P37231 1-505): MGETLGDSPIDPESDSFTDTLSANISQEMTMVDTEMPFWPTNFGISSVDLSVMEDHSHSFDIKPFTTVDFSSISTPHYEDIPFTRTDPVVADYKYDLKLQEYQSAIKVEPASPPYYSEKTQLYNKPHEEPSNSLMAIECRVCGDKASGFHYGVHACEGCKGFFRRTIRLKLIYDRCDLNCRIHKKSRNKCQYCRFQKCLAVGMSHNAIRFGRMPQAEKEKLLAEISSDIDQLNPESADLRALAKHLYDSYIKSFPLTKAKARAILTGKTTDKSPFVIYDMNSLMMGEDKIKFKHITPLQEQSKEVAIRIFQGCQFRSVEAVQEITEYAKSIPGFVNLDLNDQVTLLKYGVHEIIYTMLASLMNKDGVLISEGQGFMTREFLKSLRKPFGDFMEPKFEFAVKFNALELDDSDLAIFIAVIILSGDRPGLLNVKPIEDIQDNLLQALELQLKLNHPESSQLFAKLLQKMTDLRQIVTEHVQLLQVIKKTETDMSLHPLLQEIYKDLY

Tetradecylthioacetic acid [TTA] was tested. Which “Effect on body weight” value (dogs; 500 mg/kg/day) did it give?
The value was “body weight loss”.

What about the Evidence of toxicity (dogs; dose levels of 50 or 500 mg/day/kg) of the same substance?
The Evidence of toxicity was “no evidence of toxicity”.

What about the “Tolerability of oral administration” value (dogs; dose levels up to 500 mg/kg/day) of the same substance?
Its value is “generally well tolerated”.

What about the “Induction of mutations in strains of Escherichia coli” value (Escherichia coli) of the same substance?
Its value is “did not induce mutations”.

And the “Mutagenicity in mouse lymphoma cells L5178Y” value [1]?
The value was “not mutagenic”.

What about the “Plasma lipids (% reduction of control) cholesterol” value (Wistar rats) of the same substance?
The value was 30 % reduction of control.

And the “Plasma lipids (% reduction of control) triglycerides” value (Wistar rats)?
Its value is 45 % reduction of control.

And the “Epididymal adipose tissue” value [2]?
Its value is 3.1 ± 0.2 g.

And the “Epididymal adipose tissue/body weight (%)” value [2]?
The value was 1.0 ± 0.1%.

And the “Retroperitoneal adipose tissue” value [2]?
Its value is 2.7 ± 0.2 g.

And the “Retroperitoneal adipose tissue/body weight (%)” value [2]?
The value was 0.8 ± 0.05%.

And the “Mean body weight (kg)” value (male dogs; week 0)?
Its value is 9,22 ± 1,77 kg.

And the “Mean body weight (kg)” value (male dogs; week 1)?
Its value is 8,95 kg.

What about the “Mean body weight (kg)” value (male dogs; week 2) of the same substance?
Its value is 8,75 ± 1,58 kg.

And the “Mean body weight (kg)” value (male dogs; week 3)?
The value was 8,58 kg.

What about the “Mean body weight (kg)” value (male dogs; week 4) of the same substance?
Its value is 8,50 ± 1,74 kg.

And the “Reduction of blood concentration of glucose” value [3]?
Its value is roughly 15%.

And the “Reduction of blood insulin concentration” value [3]?
Its value is roughly 40%.

What about the Blood glucose concentration [4] of the same substance?
The Blood glucose concentration was “reduces”.

What about the Blood insulin concentration [4] of the same substance?
The Blood insulin concentration was “reduces”.

What about the “Ligand of PPARα” value (PPARα) of the same substance?
Its value is “potent ligand”.

And the “Ligand of PPARγ” value (PPARγ)?
Its value is “less potent ligand”.
